Experimental data from paper PMC12677607, “Identification of a Pair of Linear or Cyclic Naturally Inspired Bifunctional Lipopeptide Antibiotics That Overcome Antimicrobial Resistance” (Advanced Science, 2025).
Values after ≈ are worked out from the molar mass of the structure shown. Bridge positions count the residues as written; N and C are the ends. Square brackets hold non-standard residues; d marks the D form. Peptide text beside a SMILES is read from it. * marks the point of attachment. Myristoyl = CCCCCCCCCCCCCC(=O)*; Orn = NCCC[C@H](N)C(=O)O; Dab = NCC[C@H](N)C(=O)O; Dap = NC[C@H](N)C(=O)O

What was measured:
[1] = tested on: vancomycin-resistant E. faecium 35682; assay: Mouse peritonitis-sepsis model; format: in vivo; conditions: E. faecium 35682, ICR mice, single s.c. dose 1 h after infection, doses 50, 100, 150 mg kg^−1, n = 5
Procedure: Six‐week‐old female ICR mice were used in all experiments and housed in a temperature‐controlled room (25 °C) with 12‐h light/dark cycle and 30% relative humidity. Mice were observed twice daily for mortality and morbidity. Abnormal clinical signs were recorded if observed and totally monitored for five days. The detailed methods for the mouse peritonitis‐sepsis model were as follows.
Vancomycin‐resistant E. faecium 35682 was cultured in BHI broth at 37 °C fro 16 h and diluted with 5% type II porcine stomach mucin and 0.9% NaCl. E. faecium cell cultures were diluted to provide a challenge inoculum of 4.0 × 10^9 CFU in 0.5 mL and then administered into each mouse via intraperitoneal injection. 25 mice were randomly grouped into five per cohort (n = 5) and each cohort was given a single dose of either vehicle (20% solutol), aquicidine C4 at 50, 100 or 150 mg/kg and daptomycin at 100 mg kg^−1 with 15 mM CaCl2 1 h after infection via subcutaneous injection.

[2] = tested on: methicillin-resistant S. aureus USA300; assay: Neutropenic thigh infection model; format: in vivo, mouse; conditions: 50 mg kg^−1 s.c. at 2, 10, 18 h, burden at 24 h, n = 8 thighs
Procedure: (§1) Six‐week‐old female ICR mice were used in all experiments and housed in a temperature‐controlled room (25 °C) with 12‐h light/dark cycle and 30% relative humidity. Meropenem‐resistant A. baumannii 1104008 or methicillin‐resistant S. aureus USA300 was cultured in the MH broth containing 50 µg mL^−1 of gentamycin and the MH broth, respectively, at 37 °C and 200 rpm overnight. Then, the strains A. baumannii 1104008 or S. aureus USA300 were washed twice in 0.9% saline and further diluted to verify the bacterial suspension with a challenge inoculum of ≈1.0 × 10^6 CFU in a volume of 0.05 mL per mouse thigh. Mice were rendered neutropenic by receiving 150 and 100 mg kg^−1 of cyclophosphamide via intraperitoneal injection on day‐4 and day‐1 before infection, respectively. For treating the thigh infection caused by A. baumannii 1104008, mice were given 100 µL of vehicle (20% solutol), colistin (25 mg kg^−1, 20% solutol), or aquicidine L (25 mg kg^−1, 20% solutol) at 2, 8, 14, and 20 h after post‐infection via subcutaneous injection. […] All mice were observed after infection for morbidity, and any abnormal signs were recorded. […] The treatment efficacies of aquicidine L or C4 were determined as the bacterial burden reduction in the thighs relative to both the vehicle and colistin‐ or vancomycin‐treated controls. All graphic data were analyzed using the GraphPad Prism software (Prism10).

S. aureus USA300 = assay: Raising resistant mutants by direct plating; format: cell-based
[3] = tested on: S. aureus USA300 MprFT345A; assay: MIC against daptomycin-resistant mutant; format: cell-based
Procedure: (§2) All MIC assays were performed two independent times (n = 2) in 96‐well plates using a broth micro‐dilution method. The lowest concentration of that inhibited visible microbial growth was recorded as the MIC value.
(§3) For most of bacterial strains, overnight cultures were diluted 5000‐fold in LB broth. For E. faecium and S. aureus, overnight cultures were diluted 1000‐ and 10000‐fold in LB broth, respectively. 100 µL of diluted cells was mixed with 100 µL of LB broth containing each peptide ranging from 64 to 0.125 µg mL^−1 at 2‐fold serial dilutions.
(§4) Overnight cultures S. aureus USA300 were diluted 10000‐fold in LB broth, and 100 µL of dilute cell suspension was added to 96‐well plates containing 100 µL serially diluted aquicidine C4, telomycin, and daptomycin (with 15 mM CaCl2). Overnight cultures K. pneumoniae CRKP5452 were diluted 5000‐fold in LB broth, and 100 µL of dilute cell suspension was added to 96‐well plates containing 100 µL serially diluted aquicidine L and colistin. After an incubation of 24 h at 37 °C, the MIC value was determined. […] The MIC value was recorded as described above, and the process was repeated daily for 21 days. Experiments were performed two independent times (n = 2).
(§5) Single‐nucleotide polymorphisms (SNPs) for telomycin‐, daptomycin‐ or colistin‐resistant mutants were identified using SNIPPY by mapping DNBSEQ‐seq reads to the reference genome of S. aureus USA300 or K. pneumoniae CRKP5452.

K. pneumoniae 15580 = assay: MIC against colistin-resistant strain; format: cell-based; conditions: Figure S127a
Procedure: as §2, §3

E. coli DH5α = assay: Membrane component feeding assay; format: cell-based; conditions: feeding 2 to 128 µg mL^−1, E. coli DH5α, Figure 5e
Procedure: The effects of bacterial membrane components on aquicidine L's or aquicidine C4's anti‐bacterial activities were evaluated using E. coli DH5α or S. aureus USA300. […] All experiments were done in triplicate (n = 3) and repeated two independent times (n = 2).

[4] = tested on: meropenem-resistant A. baumannii 1104008; assay: Neutropenic thigh infection model; format: in vivo, mouse; conditions: A. baumannii 1104008 thigh, 25 mg kg^−1 s.c. at 2, 8, 14, 20 h, burden at 24 h, n = 8 thighs
Procedure: as §1

[5] = tested on: K. pneumoniae CRKP 5452 PhoQL348Q; assay: MIC against colistin-resistant mutant; format: cell-based
Procedure: as §2, §3, §4, §5

[6] = tested on: Acinetobacter baumannii P53; assay: microbe, parasite or virus in culture; format: cell-based; conditions: Table S11; LB broth, 37 °C, 16 h, n = 2
Procedure, shortened: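 Growth inhibition read visually; MIC taken as lowest inhibitory concentration. LB medium; inocula from overnight cultures diluted 5000-fold, S. aureus 10000-fold. Peptide range 64 to 0.125 µg mL^−1 (2-fold, pre-mix), two independent determinations.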

Structure (SMILES)	minimal dose required for 100% survival [1] [mg/kg]	reduction in CFUs compared with the vehicle [2] [log10]	increase in MIC of colonies from direct plating on antibiotic-containing solid media (S. aureus USA300)	antibacterial activity (MIC) S. aureus USA300 MprFT345A ([3]; Figure S127b, daptomycin-resistant mutant) [µg/mL]	increase in MIC against resistant mutant compared to wild type ([3]; S. aureus USA300 MprF^T345A vs wild type) [fold]	antibacterial activity (MIC) K. pneumoniae 15580 (K. pneumoniae 15580) [µg/mL]	inhibition of antibacterial activity by LPS and PE (E. coli DH5α)	reduction in CFUs compared with the vehicle [4] [log10]	antibacterial activity (MIC) K. pneumoniae CRKP 5452 PhoQL348Q ([5]; Figure S127a, colistin-resistant mutant from serial passaging) [µg/mL]	increase in MIC against resistant mutant compared to wild type ([5]; K. pneumoniae CRKP5452 PhoQ^L348Q vs wild type) [fold]	MIC Acinetobacter baumannii P53 [6] [µg/mL]
CCCCCCCCCCCCCC(=O)N[C@@H](CN)C(=O)N[C@H](C(=O)N[C@@H](CC(C)C)C(=O)N[C@H]1COC(=O)[C@H](Cc2ccccc2)NC(=O)[C@H](CC(N)=O)NC(=O)[C@H](CCCN)NC(=O)[C@H]([C@@H](C)CC)NC(=O)[C@H](Cc2ccccc2)NC(=O)[C@H](CN)NC(=O)[C@H](CCN)NC1=O)[C@@H](C)O [synAQU5-C4] (Myristoyl-[Dap]TLS[Dab][Dap]FI[Orn]NF; ester 4-C)	100	3	did not show more than a one‐fold increase in MIC	16	4	–	–	–	–	–	–
CCCCCCCCCCCCCC(=O)N[C@@H](CN)C(=O)N[C@H](C(=O)N[C@@H](CC(C)C)C(=O)N[C@@H](CO)C(=O)N[C@@H](CCN)C(=O)N[C@@H](CN)C(=O)N[C@@H](Cc1ccccc1)C(=O)N[C@H](C(=O)N[C@@H](CCCN)C(=O)N[C@@H](CC(N)=O)C(=O)N[C@@H](Cc1ccccc1)C(=O)O)[C@@H](C)CC)[C@@H](C)O [synAQU5-L] (Myristoyl-[Dap]TLS[Dab][Dap]FI[Orn]NF-OH)	–	–	–	–	–	8	stronger dose‐dependent inhibition	3	16	4	8 (≈ 5.56 µM)
